Test results reported in the supplement of paper PMC8617591.

Columns and labels:
[1] = tested on: Mycobacterium tuberculosis Erdman (autoluminescent); test: total FIC90 (Loewe) at 90% inhibition, three-drug combination (log2); higher = more antagonistic
Description: (§1)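 DiaMOND equipotent three-drug combination dose responses (10 doses, 1.5- or 2-fold spacing, centred on IC90) against autoluminescent M. tuberculosis Erdman in 8 in vitro models. Read-out is OD600, or luminescence for the intracellular and dormancy models, normalised to untreated wells. Hill-fit Einf, AUC25 and GRinf are potency metrics; FIC50 and FIC90 are total Loewe fractional inhibitory concentrations as log2 (negative = synergy).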

[2] = tested on: Mycobacterium tuberculosis Erdman (autoluminescent); test: AUC25, normalised area under dose response up to IC25 (three-drug combination) (fraction (0-1)); higher = more potent at low dose
Description: as §1

[3] = tested on: Mycobacterium tuberculosis Erdman (autoluminescent); test: total FIC50 (Loewe) at 50% inhibition, three-drug combination (log2); higher = more antagonistic
Description: as §1

[4] = tested on: Mycobacterium tuberculosis Erdman (autoluminescent); test: Einf, fitted maximum growth inhibition of three-drug combination (fraction); higher = stronger maximal inhibition
Description: as §1

[5] = tested on: Mycobacterium tuberculosis Erdman (autoluminescent); test: GRinf, maximum normalised growth rate inhibition (three-drug combination) (unitless (-1 to 1)); higher = less effect (negative = killing)
Description: as §1

COc1nc2ccc(Br)cc2cc1[C@@H](c1ccccc1)[C@@](O)(CCN(C)C)c1cccc2ccccc12 [bedaquiline] + COc1c(N2C[C@@H]3CCCN[C@@H]3C2)c(F)cc2c(=O)c(C(=O)O)cn(C3CC3)c12 [moxifloxacin] + CO[C@H]1/C=C/O[C@@]2(C)Oc3c(C)c(O)c4c(O)c(c(/C=N/N5CCN(C6CCCC6)CC5)c(O)c4c3C2=O)NC(=O)/C(C)=C\C=C\[C@H](C)[C@H](O)[C@@H](C)[C@@H](O)[C@@H](C)[C@H](OC(C)=O)[C@@H]1C [rifapentine]
Conditions | AUC25, [2] | Einf, [4] | GRinf, [5] | total FIC50, [3] | total FIC90, [1]
in vitro model: acidic pH 5.7, time point: constant (~7 days, model-specific) | 0.0678 | 0.851 | -0.0721 | 0.823 | –
in vitro model: acidic pH 5.7, time point: terminal (~4-5 doublings, model-specific) | 0.0653 | 0.994 | -0.308 | 1.07 | 0.708
in vitro model: intracellular J774, time point: constant = terminal | – | 0.932 | -0.235 | – | 0.946

Conditions | AUC25, [2] | Einf, [4] | GRinf, [5] | total FIC50, [3] | total FIC90, [1]
in vitro model: butyrate, time point: constant (~7 days, model-specific) | 0.1 | 0.952 | -0.132 | 0.844 | 0.676
in vitro model: butyrate, time point: terminal (~4-5 doublings, model-specific) | 0.0773 | 0.977 | -0.0985 | 0.876 | 0.991
in vitro model: cholesterol 0.05 mM, time point: constant (~7 days, model-specific) | 0.0837 | 0.716 | -0.256 | 0.531 | –
in vitro model: cholesterol 0.05 mM, time point: terminal (~4-5 doublings, model-specific) | 0.0604 | 0.905 | -0.183 | 0.923 | 0.462
in vitro model: cholesterol-high 0.2 mM, time point: constant (~7 days, model-specific) | 0.0607 | 0.949 | -0.394 | 0.723 | 0.4
in vitro model: cholesterol-high 0.2 mM, time point: terminal (~4-5 doublings, model-specific) | 0.0498 | 1 | -0.57 | 0.949 | 0.645
in vitro model: dormancy (butyrate + nitrate, low O2), time point: constant (~7 days, model-specific) | 0.0857 | 0.928 | 0.0745 | 0.868 | 1.67
in vitro model: dormancy (butyrate + nitrate, low O2), time point: terminal (~4-5 doublings, model-specific) | 0.0736 | 0.997 | -0.28 | 1.05 | 1.35
in vitro model: standard 7H9 glycerol, time point: constant = terminal | 0.0761 | 0.966 | -0.0766 | 0.73 | 0.338
in vitro model: valerate, time point: constant (~7 days, model-specific) | 0.063 | 0.915 | -0.117 | 1.01 | –
in vitro model: valerate, time point: terminal (~4-5 doublings, model-specific) | 0.0335 | 0.946 | -0.0711 | 0.995 | 0.711

COc1nc2ccc(Br)cc2cc1[C@@H](c1ccccc1)[C@@](O)(CCN(C)C)c1cccc2ccccc12 [bedaquiline] + COc1c(N2C[C@@H]3CCCN[C@@H]3C2)c(F)cc2c(=O)c(C(=O)O)cn(C3CC3)c12 [moxifloxacin] + CO[C@H]1/C=C/O[C@@]2(C)Oc3c(C)c(O)c4c(O)c(c(/C=N/N5CCN(C)CC5)c(O)c4c3C2=O)NC(=O)/C(C)=C\C=C\[C@H](C)[C@H](O)[C@@H](C)[C@@H](O)[C@@H](C)[C@H](OC(C)=O)[C@@H]1C [rifampicin]
Conditions | AUC25, [2] | Einf, [4] | GRinf, [5] | total FIC50, [3] | total FIC90, [1]
in vitro model: acidic pH 5.7, time point: constant (~7 days, model-specific) | 0.0637 | 0.833 | -0.0329 | 0.708 | –
in vitro model: acidic pH 5.7, time point: terminal (~4-5 doublings, model-specific) | 0.0621 | 0.98 | -0.13 | 1.07 | 0.594
in vitro model: intracellular J774, time point: constant = terminal | – | 0.938 | -0.427 | – | 0.931

Conditions | AUC25, [2] | Einf, [4] | GRinf, [5] | total FIC50, [3] | total FIC90, [1]
in vitro model: butyrate, time point: constant (~7 days, model-specific) | 0.12 | 0.964 | -0.414 | 0.594 | 0.579
in vitro model: butyrate, time point: terminal (~4-5 doublings, model-specific) | 0.105 | 0.99 | -0.247 | 0.573 | 1.1
in vitro model: cholesterol 0.05 mM, time point: constant (~7 days, model-specific) | 0.0826 | 0.745 | -0.166 | 0.0975 | –
in vitro model: cholesterol 0.05 mM, time point: terminal (~4-5 doublings, model-specific) | 0.074 | 0.866 | -0.045 | 1.13 | -0.616
in vitro model: cholesterol-high 0.2 mM, time point: constant (~7 days, model-specific) | 0.057 | 0.957 | -0.452 | 0.677 | 0.0311
in vitro model: cholesterol-high 0.2 mM, time point: terminal (~4-5 doublings, model-specific) | 0.0547 | 1 | -0.61 | 0.955 | 0.594
in vitro model: dormancy (butyrate + nitrate, low O2), time point: constant (~7 days, model-specific) | 0.0876 | 0.925 | 0.215 | 0.688 | 0.901
in vitro model: dormancy (butyrate + nitrate, low O2), time point: terminal (~4-5 doublings, model-specific) | 0.0619 | 0.982 | -0.201 | 0.97 | 1.03
in vitro model: standard 7H9 glycerol, time point: constant = terminal | 0.0774 | 0.96 | -0.141 | 0.732 | –
in vitro model: valerate, time point: constant (~7 days, model-specific) | 0.046 | 0.884 | -0.0825 | 1.19 | –
in vitro model: valerate, time point: terminal (~4-5 doublings, model-specific) | 0.0316 | 0.953 | -0.044 | 1.1 | 0.726

COc1nc2ccc(Br)cc2cc1[C@@H](c1ccccc1)[C@@](O)(CCN(C)C)c1cccc2ccccc12 [bedaquiline] + COc1c(N2C[C@@H]3CCCN[C@@H]3C2)c(F)cc2c(=O)c(C(=O)O)cn(C3CC3)c12 [moxifloxacin] + NC(=O)c1cnccn1 [pyrazinamide]
Conditions | AUC25, [2] | Einf, [4] | GRinf, [5] | total FIC50, [3] | total FIC90, [1]
in vitro model: acidic pH 5.7, time point: constant (~7 days, model-specific) | 0.0871 | 0.847 | -0.43 | 0.0701 | –
in vitro model: acidic pH 5.7, time point: terminal (~4-5 doublings, model-specific) | 0.0844 | 0.984 | -0.325 | 0.276 | -0.165
in vitro model: intracellular J774, time point: constant = terminal | – | 0.982 | -0.385 | – | 0.89

Conditions | AUC25, [2] | Einf, [4] | GRinf, [5] | total FIC50, [3] | total FIC90, [1]
in vitro model: butyrate, time point: constant (~7 days, model-specific) | 0.108 | 0.952 | -0.798 | 0.562 | 1.12
in vitro model: butyrate, time point: terminal (~4-5 doublings, model-specific) | 0.0863 | 0.987 | -0.741 | 0.738 | 1.18
in vitro model: cholesterol 0.05 mM, time point: constant (~7 days, model-specific) | 0.113 | 0.762 | -0.387 | – | –
in vitro model: cholesterol 0.05 mM, time point: terminal (~4-5 doublings, model-specific) | 0.115 | 0.95 | -0.419 | 0.205 | 2.28
in vitro model: cholesterol-high 0.2 mM, time point: constant (~7 days, model-specific) | 0.0866 | 0.981 | -0.58 | 0.399 | –
in vitro model: cholesterol-high 0.2 mM, time point: terminal (~4-5 doublings, model-specific) | 0.0915 | 1 | -0.586 | 0.406 | 0.558
in vitro model: dormancy (butyrate + nitrate, low O2), time point: constant (~7 days, model-specific) | 0.0687 | 0.928 | 0.247 | -0.56 | -0.988
in vitro model: dormancy (butyrate + nitrate, low O2), time point: terminal (~4-5 doublings, model-specific) | 0.0596 | 0.987 | -0.0885 | 0.109 | -0.187
in vitro model: standard 7H9 glycerol, time point: constant = terminal | 0.0806 | 0.969 | -0.108 | – | –
in vitro model: valerate, time point: constant (~7 days, model-specific) | 0.102 | 0.916 | -0.131 | 0.831 | –
in vitro model: valerate, time point: terminal (~4-5 doublings, model-specific) | 0.06 | 0.949 | -0.0556 | 0.778 | 1.03
